Assay results from US5843948A, “Piperazinophenyl- and piperazinophenyloxycarboxylic acid derivatives, and processes and intermediates for their preparation and pharmaceutical compositions comprising them” (Solvay Pharmaceuticals GmbH, priority 1996, dated 1998).

Target: T1, purified GP IIb/IIIa fibrinogen receptor from human blood platelets (Homo sapiens, UniProt P05106+P08514)
T1 construct: purified GP IIb/IIIa fibrinogen receptor from human blood platelets; from tissue; host or cells: human blood platelets
Experiment: Inhibition of fibrinogen binding to GP IIb/IIIa, solid phase enzyme immunoassay of the ELISA type (Kouns et al.)
Settings: purified human plasma fibrinogen 20 μg/ml, 37° C., 2 hours, read-out: pIC50 (negative common logarithm of the IC50 for inhibition of the specific fibrinogen binding of GP IIb/IIIa) (converted)
Method: The inhibitory action of the substances of the formula I on the fibrinogen binding to the fibrinogen receptor of the blood platelets, the GP IIb/IIIa, was detected in a solid phase enzyme immunoassay of the ELISA type ("Enzyme-Linked Immunosorbent Assay") according to the method described by Kouns et al. (Blood 80 (1992) 2539-2547).
A solution of purified GP IIb/IIIa fibrinogen receptor from human blood platelets (1 μg/ml in phosphate-buffered physiological saline solution, pH 7.4) was applied in portions of 100 μl/sample position to a microtitre plate and allowed to stand at 4° C. for 18 hours. Excess receptor reagent was washed off by a standard wash (3 times 350 μl of wash buffer solution/sample position: 0.01% (v/v) Tween 80 in phosphate-buffered physiological saline solution) and unoccupied residual protein binding sites were occupied by a blocking reagent [300 μl/sample position of an aqueous receptor buffer solution: 20 mmole/liter of tris(hydroxymethyl)aminomethane, 150 mmole/liter of NaCl, 1 mmole/liter of MgCl2, 1 mmole/liter of CaCl2; treated with 5% (w/v) bovine serum albumin (BSA)]. The mixture was incubated at 37° C. for 2 hours and excess blocking reagent was removed.
Purified human plasma fibrinogen [100 μl/sample position of a 20 μg/ml solution in test buffer. Test buffer=receptor buffer mixed with 1% (w/v) BSA] was then added together with the test substance dissolved therein (concentration dependent on the test substance) and incubated at 37° C. for 2 hours. Unbound fibrinogen was removed by standard washing and the incubation was continued for a further hour at room temperature after addition of biotinylated rabbit antibodies against human fibrinogen (100 μl/sample position in optimum use dilution, dissolved in test buffer) . After a further standard wash, horseradish peroxidase-conjugated streptavidin (1:2000, in suitable dilution in test buffer) was added, and the mixture was incubated again at room temperature for one hour, followed by a further standard wash.
Finally, the peroxidase substrate 2,2'-azinodi-(3-ethylbenzothiazolinesulfonate) (abbreviated below as ABTS), (100 μl/sample position of a solution of 0.4 g/liter of ABTS in 0.1 mole/liter of citric acid buffer, adjusted to pH 4 using 0.4 mole/liter of NaH2 PO4 ·2 H2 O), treated with 0.003% (w/v) hydrogen peroxide, was added and the extinction of the mixture was measured at 405 nm at 5 minute intervals for twenty minutes.
The peroxidase activity was determined from the measurements as the increase in the extinction with time. It was used to calculate the total fibrinogen binding and also the non-specific fibrinogen binding. The non-specific fibrinogen binding was determined without addition of the GP IIb/IIIa. The specific fibrinogen binding could be calculated from these two values. The effect of the test substances was expressed in IC50 values, which were obtained by interpolation from concentration-dependent measuring curves. The IC50 is that concentration in μmole/liter at which a test substance inhibits the specific fibrinogen binding of GP IIb/IIIa by 50%. The following Table 1 presents the IC50 values found for the test substance as negative common logarithms, the pIC50 values. The example numbers relate to the subsequent preparation examples.

T1 sequence (P08514 32-887 limits assumed): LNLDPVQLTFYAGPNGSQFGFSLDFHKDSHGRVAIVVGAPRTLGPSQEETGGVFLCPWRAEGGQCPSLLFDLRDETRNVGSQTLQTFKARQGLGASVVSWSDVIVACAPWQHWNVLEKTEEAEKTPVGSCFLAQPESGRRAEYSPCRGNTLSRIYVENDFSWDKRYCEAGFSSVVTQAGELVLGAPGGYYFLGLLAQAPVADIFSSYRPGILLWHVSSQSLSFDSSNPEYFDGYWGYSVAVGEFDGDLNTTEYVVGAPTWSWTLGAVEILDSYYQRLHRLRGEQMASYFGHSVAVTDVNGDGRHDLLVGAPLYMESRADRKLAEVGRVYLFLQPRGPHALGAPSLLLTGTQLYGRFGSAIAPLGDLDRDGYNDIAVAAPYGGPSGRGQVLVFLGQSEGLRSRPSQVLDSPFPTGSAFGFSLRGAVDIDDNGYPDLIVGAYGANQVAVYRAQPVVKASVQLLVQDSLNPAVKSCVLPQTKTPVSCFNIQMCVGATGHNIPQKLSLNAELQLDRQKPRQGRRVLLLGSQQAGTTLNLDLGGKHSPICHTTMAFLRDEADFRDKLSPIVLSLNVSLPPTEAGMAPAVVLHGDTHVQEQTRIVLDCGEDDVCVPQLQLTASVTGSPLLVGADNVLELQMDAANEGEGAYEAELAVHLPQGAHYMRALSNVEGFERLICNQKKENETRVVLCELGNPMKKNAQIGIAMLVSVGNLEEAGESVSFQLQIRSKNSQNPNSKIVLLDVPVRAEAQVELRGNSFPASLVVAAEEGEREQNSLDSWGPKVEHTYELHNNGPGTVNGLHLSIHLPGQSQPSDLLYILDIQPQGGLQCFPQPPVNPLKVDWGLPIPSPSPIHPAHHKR
T1 sequence (P08514 891-1039 limits assumed): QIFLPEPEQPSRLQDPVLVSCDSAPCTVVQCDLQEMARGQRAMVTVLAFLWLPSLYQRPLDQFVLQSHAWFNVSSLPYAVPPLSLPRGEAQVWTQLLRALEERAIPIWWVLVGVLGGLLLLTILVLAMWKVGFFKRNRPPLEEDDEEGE
T1 sequence (P05106 27-788): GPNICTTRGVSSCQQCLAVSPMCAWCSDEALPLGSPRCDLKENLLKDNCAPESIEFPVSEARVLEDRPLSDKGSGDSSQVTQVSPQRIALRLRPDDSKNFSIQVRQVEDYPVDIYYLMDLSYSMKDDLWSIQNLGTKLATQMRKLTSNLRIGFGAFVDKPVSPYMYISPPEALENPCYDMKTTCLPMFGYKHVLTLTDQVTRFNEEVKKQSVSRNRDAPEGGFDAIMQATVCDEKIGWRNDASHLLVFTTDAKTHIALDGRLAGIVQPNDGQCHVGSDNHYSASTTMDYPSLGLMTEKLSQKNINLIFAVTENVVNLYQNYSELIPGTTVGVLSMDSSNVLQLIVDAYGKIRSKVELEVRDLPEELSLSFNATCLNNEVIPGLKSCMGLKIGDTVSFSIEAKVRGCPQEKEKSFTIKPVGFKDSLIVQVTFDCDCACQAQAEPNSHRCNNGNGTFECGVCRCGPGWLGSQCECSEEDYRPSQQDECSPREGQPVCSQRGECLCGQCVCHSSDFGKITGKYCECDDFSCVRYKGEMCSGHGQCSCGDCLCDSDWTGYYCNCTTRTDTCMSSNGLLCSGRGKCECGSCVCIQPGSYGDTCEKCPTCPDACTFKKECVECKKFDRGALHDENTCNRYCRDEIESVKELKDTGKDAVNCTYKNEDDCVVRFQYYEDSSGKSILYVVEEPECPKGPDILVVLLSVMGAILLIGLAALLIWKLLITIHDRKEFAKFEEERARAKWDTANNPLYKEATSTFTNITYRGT

Row | Structure (SMILES) | IC50
1 | N=C(N)c1ccc(N2CCN(c3ccc(CCC(=O)O)cc3)CC2)nc1 [Example 10, 3-{4-[4-(2-(5-Amidinopyridyl))-1-piperazinyl]-phenyl}propionic acid] | 30.2 nM
2 | N=C(N)c1ccc(N2CCN(c3ccc(OCC(=O)O)cc3)CC2)nc1 [Example 6, 4-{4-[2-(5-Amidinopyridyl)]-1-piperazinyl}-phenoxyacetic acid] | 1.55 nM
3 | N=C(N)c1ccc(N2CCN(c3ccc(OCC(=O)O)cc3)CC2)cc1 [Example 2a, 4-[4-(4-Amidinophenyl)-1-piperazinyl]-phenoxyacetic acid] | 1.58 nM

Other lines, results leading:

Row | IC50 | Structure (SMILES)
4 | 36.3 nM | COC(=O)COc1ccc(N2CCN(c3ccc(C(=N)N)cn3)CC2)cc1 [Example 7, Methyl 4-{4-[2-(5-amidinopyridyl)]-1-piperazinyl}phenoxyacetate]
5 | 28.2 nM | N=C(N)c1ccc(N2CCN(c3ccc(CCC(=O)O)cc3)CC2)cc1 [Example 12]
